Source: patent publication US20130225548A1, “Pyridine Derivative and Medicinal Agent” (NIPPON SHINYAKU CO., LTD., priority 2010, published 2013)
pIC50: −log10 of the molar value. Structures can show the parent of a compound that is named as a salt.

target: T1, Syk tyrosine kinase (Homo sapiens, UniProt P43405); assay: Test for Syk tyrosine kinase inhibitory activity (ELISA); format: biochemical; conditions: Syk tyrosine kinase (Carna Biosciences), 25 μM ATP in substrate solution, 30° C. 1 hour, n=2; read-out: Evaluation (IC50, concentration inhibiting the tyrosine kinase activity at 50%)
T1 construct: purchased Carna Biosciences, Inc
Outline: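 Syk kinase (0.025 nM stock before addition) with 625 nM biotinylated peptide and 25 μM ATP (substrate-solution levels) in Tris pH 7.5, MgCl2, DTT; 1 h at 30 °C on streptavidin plates. Phosphotyrosine detected by HRP anti-pTyr antibody, TMB, A450; IC50 by non-linear regression.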

SMILES | pIC50
N#Cc1ccnc(Nc2cc(C3CC3)cc(-c3cccc(CN4CCNC(=O)C4)c3)n2)c1 [Example 79, 2-[(4-cyclopropyl-6-{3-[(3-oxopiperazin-1-yl)methyl]phenyl}pyridin-2-yl)amino]pyridine-4-carbonitrile hydrochloride] | 7.30 to 8.30
N#Cc1ccnc(Nc2cc(C3CC3)cc(-c3ccc(CN4CCNC(=O)C4)cc3)n2)c1 [Example 80, 2-[(4-cyclopropyl-6-{4-[(3-oxopiperazin-1-yl)methyl]phenyl}pyridin-2-yl)amino]pyridine-4-carbonitrile hydrochloride] | 6.30 to 7.30
N#Cc1ccnc(Nc2cc(C3CC3)cc(-c3cncc(CN4CCNCC4)c3)n2)c1 [Example 81, 2-{[4-cyclopropyl-5′-(piperazin-1-ylmethyl)-2,3′-bipyridin-6-yl]amino}pyridine-4-carbonitrile hydrochloride] | 7.30 to 8.30
CC(=O)N1CCN(Cc2cncc(-c3cc(C4CC4)cc(Nc4cc(C#N)ccn4)n3)c2)CC1 [Example 82, 2-({5′-[(4-acetylpiperazin-1-yl)methyl]-4-cyclopropyl-2,3′-bipyridin-6-yl}amino)pyridine-4-carbonitrile hydrochloride] | 6.30 to 7.30
N#Cc1ccnc(Nc2cc(C3CC3)cc(-c3cncc(CN4CCN(C(N)=O)CC4)c3)n2)c1 [Example 83, 4-({6-[(4-cyanopyridin-2-yl)amino]-4-cyclopropyl-2,3′-bipyridin-5′-yl}methyl)piperazine-1-carboxamide hydrochloride] | 7.30 to 8.30
N#Cc1ccnc(Nc2cc(C3CC3)cc(-c3ccnc(CN4CCNCC4)c3)n2)c1 [Example 86, 2-{[4-cyclopropyl-2′-(piperazin-1-ylmethyl)-2,4′-bipyridin-6-yl]amino}pyridine-4-carbonitrile hydrochloride] | 7.30 to 8.30

The remaining lines, values ahead:

pIC50 | SMILES
7.30 to 8.30 | N#Cc1ccnc(Nc2cc(C3CC3)cc(-c3cncc(CN4CCS(=O)(=O)CC4)c3)n2)c1 [Example 74, 2-({4-cyclopropyl-5′-[(1,1-dioxidethiomorpholin-4-yl)methyl]-2,3′-bipyridin-6-yl}amino)pyridine-4-carbonitrile hydrochloride]
7.30 to 8.30 | N#Cc1ccnc(Nc2cc(C3CC3)cc(-c3cncc(CN4CCCN(C(N)=O)CC4)c3)n2)c1 [Example 75, 4-({6-[(4-cyanopyridin-2-yl)amino]-4-cyclopropyl-2,3′-bipyridin-5′yl}methyl)-1,4-diazepane-1-carboxamide hydrochloride]
7.30 to 8.30 | N#Cc1ccnc(Nc2cc(C3CC3)cc(-c3ccnc(N4CCCN(C(N)=O)CC4)c3)n2)c1 [Example 76, 4-{6-[(4-cyanopyridin-2-yl)amino]-4-cyclopropyl-2,4′-bipyridin-2′-yl}-1,4-diazepane-1-carboxamide hydrochloride]
7.30 to 8.30 | N#Cc1ccnc(Nc2cc(C3CC3)cc(-c3cncc(NC4CCN(C(N)=O)CC4)c3)n2)c1 [Example 77, 4-({6-[(4-cyanopyridin-2-yl)amino]-4-cyclopropyl-2,3′-bipyridin-5′-yl}amino)piperidine-1-carboxamide hydrochloride]
7.30 to 8.30 | N#Cc1ccnc(Nc2cc(C3CC3)cc(-c3cccc(N4CCCN(C(N)=O)CC4)c3)n2)c1 [Example 78, 4-(3-{6-[(4-cyanopyridin-2-yl)amino]-4-cyclopropylpyridin-2-yl}phenyl)-1,4-diazepane-1-carboxamide hydrochloride]
> 8.30 | N#Cc1ccnc(Nc2cc(C3CC3)cc(-c3cccc(CN4CCNCC4)c3)n2)c1 [Example 84, 2-({4-cyclopropyl-6-[3-(piperazin-1-ylmethyl)phenyl]pyridin-2-yl}amino)pyridine-4-carbonitrile hydrochloride]
> 8.30 | N#Cc1ccnc(Nc2cc(C3CC3)cc(-c3cncc(NC4CCNCC4)c3)n2)c1 [Example 85, 2-{[4-cyclopropyl-5′-(piperidin-4-ylamino)-2,3′-bipyridin-6-yl]amino}pyridine-4-carbonitrile hydrochloride]
